≈ marks a conversion by molar mass, not a printed value.
What was measured:
Format in all cases: functional
[1] = tested on: Streptococcus pneumoniae; assay: Antimicrobial activity against Streptococcus pneumoniae IID553 by micro broth dilution or agar based method
[2] = tested on: Pseudomonas aeruginosa; assay: Antimicrobial activity against Pseudomonas aeruginosa PAO1 by micro broth dilution or agar based method
[3] = tested on: Acinetobacter baumannii; assay: Antimicrobial activity against Acinetobacter baumannii IID876 by micro broth dilution or agar based method
[4] = tested on: Escherichia coli; assay: Antimicrobial activity against Escherichia coli ATCC 25922 by micro broth dilution or agar based method
[5] = tested on: Enterococcus faecium; assay: Antimicrobial activity against VanA expressing vancomycin-resistant Enterococcus faecium by micro broth dilution or agar based method
[6] = tested on: Staphylococcus aureus; assay: Antimicrobial activity against Staphylococcus aureus Smith by micro broth dilution or agar based method
[7] = tested on: Staphylococcus aureus; assay: Antimicrobial activity against methicillin-resistant Staphylococcus aureus OIT971 by micro broth dilution or agar based method
[8] = Streptococcus pneumoniae, IID553, read-out: MIC
[9] = Pseudomonas aeruginosa, PAO1, read-out: MIC
[10] = Acinetobacter baumannii, IID876, read-out: MIC
[11] = Escherichia coli, ATCC 25922, read-out: MIC
[12] = Enterococcus faecium, read-out: MIC
[13] = Staphylococcus aureus, Smith, read-out: MIC

Row | SMILES | MIC [1, 8] | MIC [2, 9] | MIC [3, 10] | MIC [4, 11] | MIC [5, 12] | MIC [6, 13] | MIC [7] | MIC [1] | MIC [2] | MIC [3] | MIC [4] | MIC [5] | MIC [6]
1 | COc1ccc2ncc(C(F)(F)F)c(CCC34CCC(NCc5ccc6c(n5)NC(=O)CO6)(CC3)CO4)c2n1 | 0.25 µg/mL (≈ 0.46 µM) | 32 µg/mL (≈ 58.9 µM) | 2 µg/mL (≈ 3.68 µM) | 4 µg/mL (≈ 7.36 µM) | 1 µg/mL (≈ 1.84 µM) | 0.03 µg/mL (≈ 0.0552 µM) |  |  |  |  |  |  | 
2 | COc1ccc2ncc(C(F)F)c(CCC34CCC(NCc5ccc6c(n5)NC(=O)CO6)(CC3)CO4)c2n1 | 0.12 µg/mL (≈ 0.228 µM) | 16 µg/mL (≈ 30.4 µM) | 2 µg/mL (≈ 3.81 µM) | 4 µg/mL (≈ 7.61 µM) | 1 µg/mL (≈ 1.9 µM) | 0.03 µg/mL (≈ 0.0571 µM) |  |  |  |  |  |  | 
3 | COc1ccc2ncc(C)c(CCC34CCC(NCc5ccc6c(n5)NC(=O)CO6)(CC3)CO4)c2n1 | 0.06 µg/mL (≈ 0.123 µM) | 16 µg/mL (≈ 32.7 µM) | 2 µg/mL (≈ 4.09 µM) | 4 µg/mL (≈ 8.17 µM) | 1 µg/mL (≈ 2.04 µM) | 0.06 µg/mL (≈ 0.123 µM) |  |  |  |  |  |  | 
4 | COc1ccc2ncc(CO)c(CCC34CCC(NCc5ccc6c(n5)NC(=O)CO6)(CC3)CO4)c2n1 | 0.5 µg/mL (≈ 0.989 µM) | 32 µg/mL (≈ 63.3 µM) | 8 µg/mL (≈ 15.8 µM) | 16 µg/mL (≈ 31.6 µM) | 4 µg/mL (≈ 7.91 µM) | 0.5 µg/mL (≈ 0.989 µM) |  |  |  |  |  |  | 
5 | COc1ccc2ncc(C(N)=O)c(CCC34CCC(NCc5ccc6c(n5)NC(=O)CO6)(CC3)CO4)c2n1 | 2 µg/mL (≈ 3.86 µM) | 32 µg/mL (≈ 61.7 µM) | 32 µg/mL (≈ 61.7 µM) | 32 µg/mL (≈ 61.7 µM) | 16 µg/mL (≈ 30.9 µM) | 4 µg/mL (≈ 7.71 µM) |  |  |  |  |  |  | 
6 | COc1ccc2ncc(S(C)(=O)=O)c(CCC34CCC(NCc5ccc6c(n5)NC(=O)CO6)(CC3)CO4)c2n1 | 0.5 µg/mL (≈ 0.903 µM) | 32 µg/mL (≈ 57.8 µM) | 8 µg/mL (≈ 14.4 µM) | 16 µg/mL (≈ 28.9 µM) | 4 µg/mL (≈ 7.22 µM) | 0.25 µg/mL (≈ 0.452 µM) |  |  |  |  |  |  | 
7 | Cc1cc(C#N)nc2c(CCC34CCC(NCc5ccc6c(n5)NC(=O)CO6)(CC3)CO4)ccnc12 | 8 µg/mL (≈ 16.5 µM) | 64 µg/mL (≈ 132 µM) | 4 µg/mL (≈ 8.25 µM) | 16 µg/mL (≈ 33 µM) | 8 µg/mL (≈ 16.5 µM) | 1 µg/mL (≈ 2.06 µM) | 0.5 µg/mL (≈ 1.03 µM) |  |  |  |  |  | 
8 | CN(C)c1nc2c(CCC34CCC(NCc5ccc6c(n5)NC(=O)CO6)(CC3)CO4)ccnc2cc1C(F)(F)F | 8 µg/mL (≈ 14.4 µM) | 8 µg/mL (≈ 14.4 µM) | 8 µg/mL (≈ 14.4 µM) | 8 µg/mL (≈ 14.4 µM) | 8 µg/mL (≈ 14.4 µM) | 8 µg/mL (≈ 14.4 µM) | 8 µg/mL (≈ 14.4 µM) |  |  |  |  |  | 
9 | CN(C)c1nc2c(CCC34CCC(NCc5ccc6c(n5)NC(=O)CO6)(CC3)CO4)ccnc2cc1F | 16 µg/mL (≈ 31.6 µM) | 16 µg/mL (≈ 31.6 µM) | 16 µg/mL (≈ 31.6 µM) | 16 µg/mL (≈ 31.6 µM) | 16 µg/mL (≈ 31.6 µM) | 1 µg/mL (≈ 1.97 µM) | 1 µg/mL (≈ 1.97 µM) |  |  |  |  |  | 
10 | O=C1COc2ccc(CNC34CCC(CCc5ccnc6ccc(C(F)(F)F)nc56)(CC3)OC4)nc2N1 | 32 µg/mL (≈ 62.3 µM) | 64 µg/mL (≈ 125 µM) | 8 µg/mL (≈ 15.6 µM) | 32 µg/mL (≈ 62.3 µM) | 16 µg/mL (≈ 31.2 µM) | 2 µg/mL (≈ 3.89 µM) | 1 µg/mL (≈ 1.95 µM) |  |  |  |  |  | 
11 | O=C1COc2ccc(CNC34CCC(CCc5ccnc6cc(C(F)(F)F)cnc56)(CC3)OC4)nc2N1 | 64 µg/mL (≈ 125 µM) | 64 µg/mL (≈ 125 µM) | 64 µg/mL (≈ 125 µM) | 64 µg/mL (≈ 125 µM) | 64 µg/mL (≈ 125 µM) | 64 µg/mL (≈ 125 µM) | 64 µg/mL (≈ 125 µM) |  |  |  |  |  | 
12 | COc1cnc2c(CCC34CCC(NCc5ccc6c(n5)NC(=O)CO6)(CC3)CO4)ccnc2c1 | 64 µg/mL (≈ 135 µM) | 64 µg/mL (≈ 135 µM) | 64 µg/mL (≈ 135 µM) | 64 µg/mL (≈ 135 µM) | 64 µg/mL (≈ 135 µM) | 32 µg/mL (≈ 67.3 µM) | 8 µg/mL (≈ 16.8 µM) |  |  |  |  |  | 
13 | O=C1COc2ccc(CNC34CCC(CCc5ccnc6cc(Cl)cnc56)(CC3)OC4)nc2N1 | 64 µg/mL (≈ 133 µM) | 64 µg/mL (≈ 133 µM) | 64 µg/mL (≈ 133 µM) | 64 µg/mL (≈ 133 µM) | 64 µg/mL (≈ 133 µM) | 64 µg/mL (≈ 133 µM) | 16 µg/mL (≈ 33.3 µM) |  |  |  |  |  | 
14 | O=C1COc2ccc(CNC34CCC(CCc5ccnc6cc(F)cnc56)(CC3)OC4)nc2N1 | 32 µg/mL (≈ 69 µM) | 32 µg/mL (≈ 69 µM) | 16 µg/mL (≈ 34.5 µM) | 32 µg/mL (≈ 69 µM) | 32 µg/mL (≈ 69 µM) | 16 µg/mL (≈ 34.5 µM) | 8 µg/mL (≈ 17.3 µM) |  |  |  |  |  | 
15 | COc1ccc2ncc(C#N)c(CC(O)C34CCC(NCc5ccc6c(n5)NC(=O)CO6)(CC3)CO4)c2n1 (single isomer, unassigned; (-)) |  |  |  |  |  |  |  | 0.25 µg/mL (≈ 0.484 µM) | 16 µg/mL (≈ 31 µM) | 1 µg/mL (≈ 1.94 µM) | 4 µg/mL (≈ 7.74 µM) | 2 µg/mL (≈ 3.87 µM) | 0.063 µg/mL (≈ 0.122 µM)
